Test results as given in patent US6433023B1, “Compositions having anti-leishmanial activity” (The United States of America as represented by the …, priority 1997, dated 2002).
Where two headings read alike, the source gives them in different places.

System: Leishmania promastigotes
Assay: Testing of agents against Leishmania species in parasite culture medium (anti-leishmanial activity)
Format: cell-based
Conditions: for IC50: read-out: concentrations effective at the IC50 level; for effectiveness compared with trifluralin: comparison with trifluralin
Excerpt: […]-3,5-dinitrobenzotrifluoride (compound 1), 4-chloro-3-nitrobenzotrifluoride (compound 4), 3-amino-4-chlorobenzotrifluoride (compound 5), 2-bromo-3,5(bis(trifluoromethyl)aniline (compound 6), 4-methoxy-3-nitrobenzotrifluoride (compound 7), and 2-nitro-4-(trifluoromethyl)thiophenol (compound 8) were obtained from Aldrich Chemical Company and were used to without further purification. Trifluralin was obtained from Reidel de Haen and was used without further purification. 4-chloro-3-nitro-5-sulfonylbenzotrifluoride (compound 2) and 4-chloro-3-nitro-5-carboxybenzotrifluoride (compound 3) were obtained from the Walter Reed Army Institute of Research inventory and were used without further purification. All of the agents were initially dissolved in dimethyl sulfoxide and were then diluted at 100 fold in parasitic culture medium before being tested against Leishmania species. […]

[1] = against Leishmania species, agents dissolved in dimethyl sulfoxide, diluted 100 fold in parasitic culture medium

SMILES | IC50 [1] [µM] | effectiveness compared with trifluralin (against Leishmania species) | IC50 (Leishmania) [µM]
Nc1cc(C(F)(F)F)cc(C(F)(F)F)c1Br [compound 6, 2-bromo-3,5-bis(trifluoromethyl)aniline] | 26 |  | 
O=[N+]([O-])c1cc(C(F)(F)F)cc([N+](=O)[O-])c1Cl [compound 1, 4-chloro-3,5 dinitrobenzotrifluoride] |  | much more effective than trifluralin | 0.89
O=C(O)c1cc(C(F)(F)F)cc([N+](=O)[O-])c1Cl [compound 3, 4-chloro-3-nitro-5-carboxybenzotrifluoride] | 120 |  | 
O=[N+]([O-])c1cc(C(F)(F)F)ccc1Cl [compound 4, 4-chloro-3-nitrobenzotrifluoride] | 35 | much more effective than trifluralin | 

Continued, in another order:

IC50 [1] [µM] | SMILES | effectiveness compared with trifluralin (against Leishmania species) | IC50 (Leishmania) [µM]
77 | Nc1cc(C(F)(F)F)ccc1Cl [compound 5, 3-amino-4-chlorobenzotrifluoride] |  | 
68 | COc1ccc(C(F)(F)F)cc1[N+](=O)[O-] [compound 7, 4-methoxy-3-nitrobenzotrifluoride] |  | 
15 | O=[N+]([O-])c1cc(C(F)(F)F)ccc1S [compound 8, 2-nitro-4-(trifluoromethyl)thiophenol] | much more effective than trifluralin | 
6.1 | O=[N+]([O-])C1=CC(C(F)(F)F)=CC(=S(=O)=O)C1Cl (stereo not drawn) [compound 2, 4-chloro-3-nitro-5-sulfonylbenzotrifluoride] | much more effective than trifluralin | 
